{"source": "patent US7439263B2", "about": "“Pyrrolidine and thiazolidine compounds” (Les Laboratoires Servier, priority 2004, dated 2008)", "note": "Counter-ions that a name gives are not always drawn."}
{"target": "T1, Dipeptidyl-Peptidase IV (DPP IV) (Sus scrofa, UniProt P22411)", "T1 construct": "using 10 μl of the pig kidney preparation; from tissue; host or cells: pig kidney membrane fraction, solubilised with n-octyl-β-glucopyranoside", "T1 sequence (P22411 whole entry)": "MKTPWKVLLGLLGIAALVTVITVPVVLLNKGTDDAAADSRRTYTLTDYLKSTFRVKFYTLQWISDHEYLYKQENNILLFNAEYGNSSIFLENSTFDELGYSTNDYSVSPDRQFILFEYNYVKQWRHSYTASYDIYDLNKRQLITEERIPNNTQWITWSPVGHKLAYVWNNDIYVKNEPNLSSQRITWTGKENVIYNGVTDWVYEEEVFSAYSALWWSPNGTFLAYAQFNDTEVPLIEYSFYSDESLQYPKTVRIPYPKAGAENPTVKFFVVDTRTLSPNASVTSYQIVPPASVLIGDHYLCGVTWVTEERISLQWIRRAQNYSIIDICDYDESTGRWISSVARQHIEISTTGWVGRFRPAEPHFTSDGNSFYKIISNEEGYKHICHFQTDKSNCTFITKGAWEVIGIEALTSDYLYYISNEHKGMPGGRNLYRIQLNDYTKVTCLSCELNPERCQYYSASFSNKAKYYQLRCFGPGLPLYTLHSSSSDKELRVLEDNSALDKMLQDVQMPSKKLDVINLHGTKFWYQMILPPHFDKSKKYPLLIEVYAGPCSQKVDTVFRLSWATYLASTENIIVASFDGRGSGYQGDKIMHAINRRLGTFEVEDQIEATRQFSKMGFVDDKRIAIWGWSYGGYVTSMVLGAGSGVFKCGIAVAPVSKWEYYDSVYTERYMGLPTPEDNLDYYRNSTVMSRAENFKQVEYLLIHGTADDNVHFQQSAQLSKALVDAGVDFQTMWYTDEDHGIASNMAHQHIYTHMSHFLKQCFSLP", "assay": "Inhibition of dipeptidyl-peptidase IV in pig kidney (Gly-Pro-pNA cleavage, absorbance at 405 nm)", "type": "biochemical", "conditions": "pig kidney membrane preparation; substrate Gly-Pro-pNA; 60 min at 37° C.; geometric mean of the IC50s", "description": "Inhibition of Dipeptidyl-Peptidase IV in Pig Kidney\nPreparation of the Membrane Fraction of Pig Kidney\nPig kidney tissue (large white pig, 2 to 3 months' old) was homogenised (5 g of tissue in 15 ml of Tris buffer (114 mM, pH 7.8-8)) and then centrifuged at 150000×g for 30 min. at 4° C. The pellet was taken up in 15 ml of buffer and re-centrifuged at 150000×g for 30 min. at 4° C. With stirring, the resulting pellet was dissolved in 15 ml of buffer with 60 mM n-octyl-β-glucopyranoside for 30 min. at ambient temperature. After centrifugation at 150000×g for 30 min. at 4° C., the supernatant was dialysed (MWCO 12-14000) against 114 mM Tris pH 7.8-8, and then divided into aliquots at —80° C.\nMeasurement of Dipetidyl Peptidase IV (DPP IV) Activity\nThe enzymatic activity is measured by cleavage of a chromogenic substrate, glycyl-prolyl-p-nitroanilide (Gly-Pro-pNA), giving Gly-Pro and pNA (p-nitroaniline); the latter is detected by absorbance at 405 nm. The activity is measured in the absence (control) or in the presence of 10 μl of the inhibitors, using 10 μl of the pig kidney preparation (0.81 mU, 1U=1 μmol of pNA product/min. at 37° C.). Incubation is started by adding the substrate (250 μl), dissolved in Tris buffer (114 mM) pH 7.8-8, over a period of 60 min. at 37° C. […] The results were expressed as a percentage of the control, and the IC50 values (effective dose for 50% inhibition of the control activity) were determined using non-linear analysis between 0 and 100%, (GraphPad Prism version 4.01 for Windows). Each measurement was carried out in quadruplicate and each IC50 determination was carried out from 1 to 5 times.\nThe results obtained (geometric mean of the IC50s) for the compounds representing the invention are compiled in the following Table: […]", "units": {"IC50": "nM"}}
{"smiles": "N#C[C@@H]1CSCN1C(=O)CNC1CCC2(CCCCC2)CC1", "note": "[Example 18, (4R)-3-[(Spiro[5.5]undec-3-yl-amino)acetyl]-1,3-thiazolidine-4-carbonitrile trifluoroacetate]", "IC50": 3.5}
{"smiles": "N#C[C@@H]1CCCN1C(=O)CNC1CCC2(CCSCC2)CC1", "note": "[Example 23, (2S)-1-[(3-Thiaspiro[5.5]undec-9-ylamino)acetyl]-2-pyrrolidine-carbonitrile hydrochloride]", "IC50": 27}
{"smiles": "N#C[C@@H]1CCCN1C(=O)CNC1(CO)CCC2(CCOCC2)CC1", "note": "[Example 1, (2S)-1-({[9-(Hydroxymethyl)-3-oxaspiro[5.5]undec-9-yl]amino}-acetyl)-2-pyrrolidinecarbonitrile]", "IC50": 76.1}
{"smiles": "N#C[C@@H]1C[C@H](F)CN1C(=O)CNC1(CO)CCC2(CCOCC2)CC1", "note": "[Example 29, (2S,4S)4-Fluoro-1-({[9-(hydroxymethyl)-3-oxaspiro[5.5]undec-9-yl]-amino}acetyl)-2-pyrrolidinecarbonitrile]", "IC50": 31.6}
{"smiles": "N#C[C@@H]1CCCN1C(=O)CNC1CCC2(CC1)CCC1(CCCCC1)CC2", "note": "[Example 8, (2S)-1-[(Dispiro[5.2.5.2]hexadec-3-ylamino)acetyl]-2-pyrrolidine-carbonitrile]", "IC50": 23}
{"smiles": "N#C[C@@H]1CCCN1C(=O)CNC1(CO)CCC2(CCCCC2)CC1", "note": "[Example 5, (2S)-1-({[3-(Hydroxymethyl)spiro[5.5]undec-3-yl]amino}acetyl)-2-pyrrolidinecarbonitrile]", "IC50": 68.5}
{"smiles": "N#C[C@@H]1CC(F)(F)CN1C(=O)CNC1(CO)CCC2(CCOCC2)CC1", "note": "[Example 30, (2S)-4,4-Difluoro-1-({[9-(hydroxymethyl)-3-oxaspiro[5.5]undec-9-yl]amino}acetyl)-2-pyrrolidinecarbonitrile]", "IC50": 20.5}
{"smiles": "N#C[C@@H]1CCCN1C(=O)CNC1CCC2(CCCCCCC2)CC1", "note": "[Example 6, (2S)-1-[(Spiro[5.7]tridec-3-ylamino)acetyl]-2-pyrrolidinecarbonitrile hydrochloride]", "IC50": 27.2}
{"smiles": "N#C[C@@H]1CCCN1C(=O)CNC1(CO)CC2(CCCC2)C1", "note": "[Example 17, (2S)-1-({[2-(Hydroxymethyl)spiro[3.4]oct-2-yl]amino}acetyl)-2-pyrrolidinecarbonitrile hydrochloride]", "IC50": 43.6}
{"smiles": "N#C[C@@H]1CCCN1C(=O)CNC1CCC2(CCNCC2)CC1", "note": "[Example 20, (2S)-1-[(3-Azaspiro[5.5]undec-9-ylamino)acetyl]-2-pyrrolidine-carbonitrile bis(trifluoroacetate)]", "IC50": 73.1}
{"smiles": "N#C[C@@H]1CCCN1C(=O)CNC1CCC2(CC1)CC2", "note": "[Example 28, (2S)-1-[(Spiro[2.5]oct-6-ylamino)acetyl]-2-pyrrolidinecarbonitrile]", "IC50": 171}
